{
  "source": "patent US5491135A",
  "about": "(priority 1993, dated 1996)",
  "key": {"Paramyxo-3": {"system": "Paramyxo-3", "assay": "In vitro antiviral assay", "format": "cell-based"}, "Herpes-1": {"system": "Herpes-1", "assay": "In vitro antiviral assay", "format": "cell-based", "details": "Vero"}, "[1]": {"system": "duck hepatitis B virus (DHBV)", "assay": "Duck hepatitis B (DHBV) in primary duck hepatocyte culture", "format": "cell-based", "description": "Using the duck hepatitis model (DHBV), primary duck hepatocyte cells were treated with various concentrations of PALA (disodium salt) and evaluated for cytopathic effect. In addition, viral DNA replication was assessed using \"slot\" dot blots. […] These experiments were performed three times with confirmatory results."}, "Vaccinia virus": {"system": "Vaccinia virus", "assay": "microbe, parasite or virus in culture", "format": "cell-based, vaccinia virus (Lederle vaccine)", "details": "Vero"}, "Punta toro virus [2]": {"system": "Punta toro virus", "details": "Vero"}, "HIV-1": {"system": "HIV-1", "assay": "In vitro antiviral MTT CPE assay", "format": "cell-based"}, "[3]": {"system": "respiratory syncytial virus (RSV)", "assay": "RSV infection in cotton rats, lung titre", "format": "in vivo, cotton rat", "details": "for RSV lung titre: individual animal", "text": "1. 50 to 100 g cotton rats of either sex inoculated i.n. with RS A2 (pool 8-28-92) on day 0.\n2. On day +1 animals were given placebo or PALA as follows:\n3. All animals killed on day +4 and their lungs tested for RSV levels."}, "simian varicella virus": {"system": "simian varicella virus", "assay": "Simian varicella virus infection in African green monkeys", "format": "in vivo, African green monkey", "description": "Fifteen African green monkeys were weighed and bled for clinical chemistry hematology baselines. […] Each of the 15 monkeys were infected with simian varicella virus by intratracheal inoculation of 3.7×10^4 plaque forming units (PFU) of simian varicella virus. […] Control monkeys, service as infection controls, received twice daily intravenous injections of phosphate buffered saline administered at 1.0 ml/kg of body weight. A second group of three monkeys received PALA at 50 mg/kg/day given by intravenous bolus injection into the saphenous vein. A third group was given a lower dose of PALA at 20 mg/kg/day administered in a similar manner. Acyclovir treatment was administered at a subeffective dose of 10 mg/kg/day also given as intravenous bolus injection into the saphenous vein. A fifth group of three monkeys received a combined treatment of PALA at 20 mg/kg/day and acyclovir at 10 mg/kg/day. The drugs were injected into opposite veins at each time of treatment.\nDrug solutions were prepared daily prior to treatment. Treatment was begun 24 hours after virus inoculation. PALA was provided as a solution in vials containing 5 ml at 100 mg/ml. The contents of three vials were pooled and seven ml of the pooled drug diluted to 28 ml to give 25 mg/ml. Five ml of this solution was diluted to […] to give 10 mg/ml. Drug was administered twice daily resulting in total daily doses of 50 or 20 mg/kg/day.\nAcyclovir received as a gift from Burroughs Wellcome was weighed out as a 200 mg quantity. This was diluted with 5 ml of PBS and pH adjusted to 11.0 with 1N NaOH to effect solution. This was subsequently diluted to 40 ml to give a solution of 5 mg/ml and sterilized by filtration. Again, 1 ml per kg of body weight was administered by intravenous injection twice daily resulting in a dose of 10 mg/kg/day.\nThe clinical course of simian varicella infection was followed by collection of 2 ml of blood in heparin on day 2, 5, 7, 9 and 11 post-inoculation. The lymphocytes in the 2 ml specimen were separated on ficol-hypaque gradients, washed twice in RPMI-1640 medium and suspended in 10 ml of this medium. The 10 ml volume was divided between two 25 cm^2 tissue culture flasks seeded 24 hours earlier with Vero cells. After 5-7 days incubation, the culture fluids were discarded from the flasks and the cell monolayer fixed with methanol and stained with methylene blue-basic fuchsin. When dried the number of plaques in each flask were counted and the mean number of plaques between the two paired flasks were determined and expressed as a quantitation of viremia per ml of blood.\nRash was evaluated daily using a subjective scoring of severity from ± to 4+. A ± score indicates less than 10 vesicles seen on the skin of the monkey while 4+ indicates numerous vesicles covering the majority of the body surface. General clinical condition was assessed daily and anorexia noted by counting the number of food biscuits consumed daily. Monkeys dying during the course of the experiment were necropsied and simian varicella was determined as the cause of death based on the typical pathology. Baseline hematology and clinical chemistry tests were performed at three days before virus inoculation and again on day 0, immediately before virus inoculation. Following inoculation of simian varicella virus blood was taken for hematology and clinical chemistry tests at 3, 7, 9 and 11 days.\nAt 14 and 21 days after virus inoculation, blood was taken and the serum separated for quantitation of antibody. Antibody titers were obtained in a serum neutralization test employing a plaque reduction assay. The antibody titer expressed is the dilution of serum resulting in an 80 percent reduction in the number of plaques from that number occurring in control cultures without added serum."}, "[4]": {"assay": "Cytotoxicity in human foreskin fibroblasts", "details": "hff cells"}, "Punta toro virus [5]": {"system": "Punta toro virus", "assay": "microbe, parasite or virus in culture", "details": "Vero"}, "herpes virus-2": {"system": "herpes virus-2", "assay": "In vitro antiviral assay", "format": "cell-based"}},
  "note": "Where “and” joins values, the source holds several entries; their conditions need not be identical. Equal entries are not always repeated. Entries after “also recorded” stand apart in the source; their conditions may differ. Where two headings read alike, the source gives them in different places.",
  "data": [
    {"smiles": "O=C(O)C[C@H](NC(=O)CP(=O)(O)O)C(=O)O", "note": "[PALA]", "values": [
      {"measurement": "IC50", "setting": "Paramyxo-3; HEp-2", "value": 10, "unit": "µg/mL"},
      {"measurement": "TI", "setting": "Paramyxo-3; Hep-2", "value": 32.0},
      {"measurement": "IC50", "setting": "Herpes-1", "value": "no inhibitory activity and None"},
      {"measurement": "inhibition at 0.5 µM", "setting": "[1]; Duck hepatitis B virus, Hepatocyte", "value": 95, "unit": "%"},
      {"measurement": "toxicity", "setting": "[1]; high concentrations", "value": "little or no toxicity"},
      {"measurement": "CC50", "setting": "in vitro; uninfected vero cells", "value": "> 320", "unit": "µg/mL"},
      {"measurement": "CC50", "setting": "in vitro; vero cells", "value": "> 320", "unit": "µg/mL"},
      {"measurement": "IC50", "setting": "Vaccinia virus; Orthopoxvirus vaccinia", "value": 10, "unit": "µg/mL"},
      {"measurement": "TI", "setting": "Vaccinia virus", "value": 32.0},
      {"measurement": "IC50", "setting": "Punta toro virus [2]", "value": 18.4, "unit": "µg/mL"},
      {"measurement": "TI (TC50/IC50)", "setting": "Punta toro virus [2]; 50% inhibition", "value": "> 21.05 and > 17.35"},
      {"measurement": "TI(95)", "setting": "Punta toro virus [2]; 95% inhibition", "value": "> 10.00"},
      {"measurement": "TI", "setting": "HIV-1; CEM", "value": "~ 5.0"},
      {"measurement": "IC50", "setting": "HIV-1; Human immunodeficiency virus 1, CCRF-CEM", "value": 12, "unit": "µg/mL"},
      {"measurement": "RSV lung titre, mean (SD)", "setting": "[3]; PALA 3 mg/kg/day", "value": "3.3 (0.3) LOG10 /G Lung"},
      {"measurement": "RSV lung titre", "setting": "[3]; PALA 3 mg/kg", "value": "3.9 LOG10 and 3.5 LOG10 and 2.9 LOG10 and 3.0 LOG10"},
      {"measurement": "RSV lung titre, mean (SD)", "setting": "[3]; PALA 10 mg/kg/day", "value": "2.8 (0.5) LOG10 /G Lung"},
      {"measurement": "decrease of viral titre over control", "setting": "[3]; PALA 10 mg/kg/day", "value": 1, "unit": "log10"},
      {"measurement": "RSV lung titre", "setting": "[3]; PALA 10 mg/kg", "value": "2.4 LOG10 and 2.9 LOG10 and 2.5 LOG10 and 3.5 LOG10"},
      {"measurement": "efficacy against RSV", "setting": "[3]; i.p.", "value": "more effective than ribavirin or combinational therapy; also recorded: statistically significant efficacy; also recorded: statistically better than ribavirin; also recorded: more effective as a single agent therapy in vivo against respiratory syncytial virus than ribavirin"},
      {"measurement": "death", "setting": "simian varicella virus; PALA 20 mg/kg/day i.v.", "value": "died later that same day"},
      {"measurement": "death", "setting": "simian varicella virus; PALA 50 mg/kg/day i.v.", "value": "died on day 10"},
      {"measurement": "thrombocytopenia on day 11", "setting": "simian varicella virus; PALA 50 or Acyclovir 10 mg/kg/day", "value": "one monkey"},
      {"measurement": "Viremia, Mean PFU", "setting": "simian varicella virus; day 5, PALA 50 mg/kg/d i.v.", "value": "136 PFU and 154 PFU and 148 PFU"},
      {"measurement": "Severity of Rash", "setting": "simian varicella virus; day 13, PALA 50 mg/kg/d i.v.", "value": "4+"},
      {"measurement": "Severity of Rash", "setting": "simian varicella virus; day 14, PALA 50 mg/kg/d i.v.", "value": "4+"},
      {"measurement": "immunosuppression", "setting": "simian varicella virus; high concentrations", "value": "Some concentration dependent immunosuppression was noted at high concentrations"},
      {"measurement": "CC50", "setting": "[4]", "value": "> 320", "unit": "µg/mL"},
      {"measurement": "IC50", "setting": "Punta toro virus [5]", "value": 15.2, "unit": "µg/mL"},
      {"measurement": "inhibitory activity", "setting": "herpes virus-2", "value": "no inhibitory activity"}
    ]}
  ]
}
